Source: the supplement of paper PMC7287046

Legend:
Conditions in all cases: exposure time: 72 h
SF539 [1] = assay: Loewe synergy score (Combenefit); higher = more synergy; extreme values may be limits of the assay
Method: (§1)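 The same 6x6 dose matrices of drug pairs on glioma cell lines (72 h, CellTiter-Glo viability normalised to DMSO, triplicate) were scored with Combenefit. The Loewe, Bliss and HSA synergy scores are given; paper thresholds are Loewe 7.8 and Bliss 2.5.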

KNS-42 [2] = assay: as above
Method: as §1

SNB75 [3] = assay: as above
Method: as §1

U87 [4] = assay: as above
Method: as §1

U251 [5] = assay: as above
Method: as §1

T98G [6] = assay: as above
Method: as §1

U118 [7] = assay: as above
Method: as §1

AM-38 [8] = assay: as above
Method: as §1

SF268 [9] = assay: as above
Method: as §1

SF539 [10] = assay: HSA synergy score (Combenefit); higher = more synergy
Method: as §1

KNS-42 [11] = assay: as above
Method: as §1

SNB75 [12] = assay: as above
Method: as §1

U87 [13] = assay: as above
Method: as §1

U251 [14] = assay: as above
Method: as §1

T98G [15] = assay: as above
Method: as §1

U118 [16] = assay: as above
Method: as §1

AM-38 [17] = assay: as above
Method: as §1

SF268 [18] = assay: as above
Method: as §1

SF539 [19] = assay: Bliss synergy score (Combenefit); higher = more synergy; extreme values may be limits of the assay
Method: as §1

KNS-42 [20] = assay: as above
Method: as §1

SNB75 [21] = assay: as above
Method: as §1

U87 [22] = assay: as above
Method: as §1

U251 [23] = assay: as above
Method: as §1

T98G [24] = assay: as above
Method: as §1

U118 [25] = assay: as above
Method: as §1

AM-38 [26] = assay: as above
Method: as §1

SF268 [27] = assay: as above
Method: as §1

SF539 [28] = assay: Chou-Talalay combination index (dimensionless); higher = less synergy (more antagonism)
Method: (§2)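 Glioma cell lines were treated for 72 h with a 6x6 matrix of two drugs, each in twofold dilutions with the top dose at the single-drug IC50. Viability was read by CellTiter-Glo and normalised to DMSO controls, in triplicate. The Chou-Talalay combination index was computed by the median effect principle; CI < 0.8 means synergy.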

SNB75 [29] = assay: as above
Method: as §2

U87 [30] = assay: as above
Method: as §2

U251 [31] = assay: as above
Method: as §2

AM38 = assay: as above
Method: as §2

U118 [32] = assay: as above
Method: as §2

SF268 [33] = assay: as above
Method: as §2

KNS42 = assay: as above
Method: as §2

T98 = assay: as above
Method: as §2

Nc1ccn([C@@H]2O[C@H](CO)[C@@H](O)C2(F)F)c(=O)n1 [Gemcitabine] + C[C@@H](Oc1cc(-c2cnn(C3CCNCC3)c2)cnc1N)c1c(Cl)ccc(F)c1Cl [Crizotinib]
Loewe synergy score (SF539 [1]): 0
Loewe synergy score (KNS-42 [2]): 0.0765
Loewe synergy score (SNB75 [3]): 5.91
Loewe synergy score (U87 [4]): 0.0421
Loewe synergy score (U251 [5]): 2.98
Loewe synergy score (T98G [6]): 0
Loewe synergy score (U118 [7]): 0.443
Loewe synergy score (AM-38 [8]): 3.12
Loewe synergy score (SF268 [9]): 0.179
HSA synergy score (SF539 [10]): 2.44
HSA synergy score (KNS-42 [11]): 1.25
HSA synergy score (SNB75 [12]): 7.67
HSA synergy score (U87 [13]): 0.0446
HSA synergy score (U251 [14]): 7.75
HSA synergy score (T98G [15]): 0
HSA synergy score (U118 [16]): 0.488
HSA synergy score (AM-38 [17]): 3.33
HSA synergy score (SF268 [18]): 1.93
Bliss synergy score (SF539 [19]): 0.0351
Bliss synergy score (KNS-42 [20]): 0
Bliss synergy score (SNB75 [21]): 4.81
Bliss synergy score (U87 [22]): 0
Bliss synergy score (U251 [23]): 0.679
Bliss synergy score (T98G [24]): 0
Bliss synergy score (U118 [25]): 0.063
Bliss synergy score (AM-38 [26]): 0.116
Bliss synergy score (SF268 [27]): 0.175
Chou-Talalay combination index (SF539 [28]): 0.801
Chou-Talalay combination index (SNB75 [29]): 0.899
Chou-Talalay combination index (U87 [30]): 1.25
Chou-Talalay combination index (U251 [31]): 0.752
Chou-Talalay combination index (AM38): 0.719
Chou-Talalay combination index (U118 [32]): 0.987
Chou-Talalay combination index (SF268 [33]): 0.954
Chou-Talalay combination index (KNS42): 0.783
Chou-Talalay combination index (T98): 1.03

Nc1ccn([C@@H]2O[C@H](CO)[C@@H](O)C2(F)F)c(=O)n1 [Gemcitabine] + Cc1cc([C@@H](C)Nc2ccccc2C(=O)O)c2nc(N3CCOCC3)cc(=O)n2c1 [AZD6482]
Loewe synergy score (SF539 [1]): 2.33
Loewe synergy score (KNS-42 [2]): 5.37
Loewe synergy score (SNB75 [3]): 3.53
Loewe synergy score (U87 [4]): 0
Loewe synergy score (U251 [5]): 1.85
Loewe synergy score (T98G [6]): 5.66
Loewe synergy score (U118 [7]): 2.14
Loewe synergy score (AM-38 [8]): 3.23
Loewe synergy score (SF268 [9]): 1.75
HSA synergy score (SF539 [10]): 10.4
HSA synergy score (KNS-42 [11]): 5.37
HSA synergy score (SNB75 [12]): 4.1
HSA synergy score (U87 [13]): 0
HSA synergy score (U251 [14]): 1.85
HSA synergy score (T98G [15]): 10.5
HSA synergy score (U118 [16]): 10.3
HSA synergy score (AM-38 [17]): 4.54
HSA synergy score (SF268 [18]): 7.02
Bliss synergy score (SF539 [19]): 0.274
Bliss synergy score (KNS-42 [20]): 2.32
Bliss synergy score (SNB75 [21]): 0
Bliss synergy score (U87 [22]): 0
Bliss synergy score (U251 [23]): 1.85
Bliss synergy score (T98G [24]): 3.93
Bliss synergy score (U118 [25]): 1.86
Bliss synergy score (AM-38 [26]): 0.237
Bliss synergy score (SF268 [27]): 0.693
Chou-Talalay combination index (SF539 [28]): 0.738
Chou-Talalay combination index (SNB75 [29]): 0.607
Chou-Talalay combination index (U87 [30]): 1.15
Chou-Talalay combination index (U251 [31]): 0.758
Chou-Talalay combination index (AM38): 0.967
Chou-Talalay combination index (U118 [32]): 0.887
Chou-Talalay combination index (SF268 [33]): 0.783
Chou-Talalay combination index (KNS42): 0.868
Chou-Talalay combination index (T98): 0.889

C=CCc1cccc(/C=N/NC(=O)CN2CCN(Cc3ccccc3)CC2)c1O [PAC-1] + CCOc1nc(NC(=O)Cc2cc(OC)ccc2OC)cc(N)c1C#N [JNK inhibitor VIII]
Loewe synergy score (SF539 [1]): 2.49
Loewe synergy score (KNS-42 [2]): 7.1
Loewe synergy score (SNB75 [3]): 5.04
Loewe synergy score (U87 [4]): 4.97
Loewe synergy score (U251 [5]): 0.13
Loewe synergy score (T98G [6]): 1.34
Loewe synergy score (U118 [7]): 2.38
Loewe synergy score (AM-38 [8]): 0.484
Loewe synergy score (SF268 [9]): 0.606
HSA synergy score (SF539 [10]): 7.4
HSA synergy score (KNS-42 [11]): 11.2
HSA synergy score (SNB75 [12]): 6.97
HSA synergy score (U87 [13]): 5.02
HSA synergy score (U251 [14]): 3.65
HSA synergy score (T98G [15]): 3.49
HSA synergy score (U118 [16]): 2.56
HSA synergy score (AM-38 [17]): 3.74
HSA synergy score (SF268 [18]): 5.39
Bliss synergy score (SF539 [19]): 3.99
Bliss synergy score (KNS-42 [20]): 0
Bliss synergy score (SNB75 [21]): 0.0865
Bliss synergy score (U87 [22]): 0.501
Bliss synergy score (U251 [23]): 2.01
Bliss synergy score (T98G [24]): 0
Bliss synergy score (U118 [25]): 0.51
Bliss synergy score (AM-38 [26]): 0
Bliss synergy score (SF268 [27]): 1.09
Chou-Talalay combination index (SF539 [28]): 0.58
Chou-Talalay combination index (SNB75 [29]): 0.91
Chou-Talalay combination index (U87 [30]): 0.794
Chou-Talalay combination index (U251 [31]): 0.85
Chou-Talalay combination index (AM38): 0.965
Chou-Talalay combination index (U118 [32]): 0.622
Chou-Talalay combination index (SF268 [33]): 0.951
Chou-Talalay combination index (KNS42): 0.944
Chou-Talalay combination index (T98): 0.982

C=CCc1cccc(/C=N/NC(=O)CN2CCN(Cc3ccccc3)CC2)c1O [PAC-1] + Cc1cc([C@@H](C)Nc2ccccc2C(=O)O)c2nc(N3CCOCC3)cc(=O)n2c1 [AZD6482]
Loewe synergy score (SF539 [1]): 0.0112
Loewe synergy score (KNS-42 [2]): 2.36
Loewe synergy score (SNB75 [3]): 14.6
Loewe synergy score (U87 [4]): 2.96
Loewe synergy score (U251 [5]): 1.75
Loewe synergy score (T98G [6]): 10.2
Loewe synergy score (U118 [7]): 1.77
Loewe synergy score (AM-38 [8]): 10.2
Loewe synergy score (SF268 [9]): 0.594
HSA synergy score (SF539 [10]): 0.0112
HSA synergy score (KNS-42 [11]): 2.36
HSA synergy score (SNB75 [12]): 21.4
HSA synergy score (U87 [13]): 2.96
HSA synergy score (U251 [14]): 1.75
HSA synergy score (T98G [15]): 11.9
HSA synergy score (U118 [16]): 4.06
HSA synergy score (AM-38 [17]): 10.7
HSA synergy score (SF268 [18]): 4.9
Bliss synergy score (SF539 [19]): 0
Bliss synergy score (KNS-42 [20]): 2.36
Bliss synergy score (SNB75 [21]): 10.9
Bliss synergy score (U87 [22]): 2.96
Bliss synergy score (U251 [23]): 1.75
Bliss synergy score (T98G [24]): 5.94
Bliss synergy score (U118 [25]): 0.918
Bliss synergy score (AM-38 [26]): 8.49
Bliss synergy score (SF268 [27]): 0.355
Chou-Talalay combination index (SF539 [28]): 1.01
Chou-Talalay combination index (SNB75 [29]): 0.976
Chou-Talalay combination index (U87 [30]): 0.635
Chou-Talalay combination index (U251 [31]): 0.847
Chou-Talalay combination index (AM38): 0.845
Chou-Talalay combination index (U118 [32]): 0.962
Chou-Talalay combination index (SF268 [33]): 0.979
Chou-Talalay combination index (KNS42): 0.882
Chou-Talalay combination index (T98): 0.865
